Data: patent publication US10092002B2, “Herbicidal composition comprising nicosulfuron or its salt and S -metolachlor or its salt” (ISHIHARA SANGYO KAISHA, LTD., priority 2011, dated 2018)

Assays:
Format in all cases: in vivo
[1] = tested on: Japanese bristlegrass (Setaria faberi Herrm); assay: Test Example 7: soil treatment, residual activity, Japanese bristlegrass sown 14 days after treatment; conditions: seeds sown on the 14th day after treatment, 21st day after sowing
Excerpt: (§1) When the herbicidal activity in a case where two active ingredients are combined, is larger than the simple sum of the respective herbicidal activities of the two active ingredients (the expected activity), it is called a synergistic effect. The activity expected by the combination of two active ingredients can be calculated as follows (Colby S. R., “Weed”, vol. 15, p. 20-22, 1967). E1=α+β-(α×β÷100) On the 22nd day after treatment, the state of growth of the common cocklebur was visually observed to determine the growth inhibition rate in accordance with the following evaluation standard. The growth inhibition rate (%) (measured value) and the growth inhibition rate (%) (calculated value) calculated by the Colby's formula are shown in Table 1. […] Upland field soil was put into a 1/500,000 ha pot, and on the next day, predetermined amounts of […] Dual Gold (tradename) were diluted with water (corresponding to 300 L/ha) and applied for soil treatment by a small sprayer. On the 14th day after treatment, seeds of Japanese bristlegrass (Setaria faberi Herrm) and spotted knotweed, (Polygonum lapathifolium L.) were sown. On the 21st day after sowing, the state of growth of the Japanese bristlegrass and the spotted knotweed was visually observed to determined the growth inhibition rate.

[2] = tested on: wild oat (Avena fatua L.); assay: Test Example 3: soil treatment, wild oat, visual growth inhibition rate; conditions: soil treatment the day after sowing, 14th day after treatment
Excerpt: When the herbicidal activity in a case where two active ingredients are combined, is larger than the simple sum of the respective herbicidal activities of the two active ingredients (the expected activity), it is called a synergistic effect. The activity expected by the combination of two active ingredients can be calculated as follows (Colby S. R., “Weed”, vol. 15, p. 20-22, 1967). […] In a case where three active ingredients are combined, the activity can be similarly calculated as follows. […] On the 22nd day after treatment, the state of growth of the common cocklebur was visually observed to determine the growth inhibition rate in accordance with the following evaluation standard. The growth inhibition rate (%) (measured value) and the growth inhibition rate (%) (calculated value) calculated by the Colby's formula are shown in Table 1. […] On the 14th day after treatment, the state of growth of the wild oat was visually observed to determine the growth inhibition rate.

[3] = tested on: spotted knotweed (Polygonum lapathifolium L.); assay: Test Example 7: soil treatment, residual activity, spotted knotweed sown 14 days after treatment; conditions: seeds sown on the 14th day after treatment, 21st day after sowing
Excerpt: as §1

[4] = tested on: sunn-hemp (Crotalaria juncea L.); assay: Test Example 4: soil treatment, sunn-hemp, visual growth inhibition rate; conditions: soil treatment the day after sowing, 28th day after treatment
Excerpt: In a case where three active ingredients are combined, the activity can be similarly calculated as follows. E2=(α+β+γ)−(αβ+αγ+βγ)/100+(αβγ)/10000 where α: growth inhibition rate when treated with x (g/ha) of herbicide X,
Growth inhibition rate (%)=0 (equivalent to the non-treated area) to 100 (complete kill)
Upland field soil was put into a 1/300,000 ha pot, and seeds of sunn-hemp (Crotalaria juncea L.) were sown.

| Molecule | inhibition at 100 g/ha ([1]; Setaria faberi, dose 100 g/ha, read-out: Growth inhibition rate (%) of Japanese bristlegrass, Measured value) | inhibition at 10 g/ha ([2]; Avena fatua, dose 10 g/ha, read-out: Growth inhibition rate (%) of wild oat, Measured value) | inhibition at 100 g/ha ([2]; Avena fatua, dose 100 g/ha, read-out: Growth inhibition rate (%) of wild oat, Measured value) | inhibition at 30 g/ha ([3]; Persicaria lapathifolia, dose 30 g/ha, read-out: Growth inhibition rate (%) of spotted knotweed, Measured value) | inhibition at 10 g/ha ([4]; Crotalaria juncea, dose 10 g/ha, read-out: Growth inhibition rate (%) of sunn-hemp, Measured value) | inhibition at 100 g/ha ([4]; Crotalaria juncea, dose 100 g/ha, read-out: Growth inhibition rate (%) of sunn-hemp, Measured value) | Growth inhibition rate (%) of Japanese bristlegrass, Measured value ([1]; dose 250 g/ha) | Growth inhibition rate (%) of wild oat, Measured value ([2]; dose 250 g/ha) | Growth inhibition rate (%) of wild oat, Measured value ([2]; dose 2000 g/ha) | Growth inhibition rate (%) of spotted knotweed, Measured value ([3]; dose 1000 g/ha) | Growth inhibition rate (%) of sunn-hemp, Measured value ([4]; dose 250 g/ha) | Growth inhibition rate (%) of sunn-hemp, Measured value ([4]; dose 2000 g/ha) |
| --- | --- | --- | --- | --- | --- | --- | --- | --- | --- | --- | --- | --- |
| COc1cc(OC)nc(NC(=O)NS(=O)(=O)c2ncccc2C(=O)N(C)C)n1 [Nicosulfuron, 2-(4,6-dimethoxypyrimidin-2-ylcarbamoylsulfamoyl)-N,N-dimethylnicotinamide] | 33% | 10% | 40% | 75% | 0% | 0% |  |  |  |  |  |  |
| a mixture of (aRS,1S)-2-chloro-6′-ethyl-N-(2-methoxy-1-methylethyl)aceto-o-toluidide (80 to 100%) and (aRS,1R)-2-chloro-6′-ethyl-N-(2-methoxy-1-methylethyl)aceto-o-toluidide (20 to 0%) [S-metolachlor] |  |  |  |  |  |  | 10% | 15% | 60% | 0% | 0% | 0% |
